US10646466B2, “Uses of gallocatechin” (TCI CO., LTD., priority 2017, dated 2020)

How the values were obtained:
Type in all cases: cell-based
Settings in all cases: 0.0625 μg/ml, 24 hours, control set as 1-fold
ASMTL gene = assay: qPCR expression level of ASMTL gene in SHSY5Y cells
Protocol: (§1) SHSYSY cells were seeded in a 6-well plate (1×10^5 cells/well) and then cultured for 24 hours. Thereafter, cells were divided into the control group and experimental group and were separately cultured in the following medium for 24 hours: • 1. Control group: DMEM medium; • 2. Experimental group: a medium the same as that of the control group, but additionally added with 0.0625 μg/ml of the compound of formula (I). Thereafter, cells of the above groups were harvested and subjected to an RNA extraction with an RNA Extract Kit. The RNA thus obtained was then transcribed into cDNA by using a Reverse Transcriptase. Thereafter, the cDNA was subjected to a quantitative polymerase chain reaction (qPCR) by using a Step One Plus system and a KAPA SYBR FAST qPCR kit to determine the expression levels of genes related to melatonin (including TPH1, DDC, AANAT and ASMTL) in the cells of each group. The above experimental steps were repeated three times, and then the results of the three experiments were averaged. Thereafter, the result of the control group was used as a basis (i.e., the gene expression level of the control group was set as 1-fold) to calculate the relative gene expression level of the experimental group.

AANAT gene = assay: qPCR expression level of AANAT gene in SHSY5Y cells
Protocol: as §1

TPH1 gene = assay: qPCR expression level of TPH1 gene in SHSY5Y cells
Protocol: as §1

DDC gene = assay: qPCR expression level of DDC gene in SHSY5Y cells
Protocol: as §1

Oc1cc(O)c2c(c1)O[C@H](c1cc(O)c(O)c(O)c1)[C@@H](O)C2 [compound of formula (I), gallocatechin]
significantly increased: relative expression level of ASMTL gene as compared to the control group (ASMTL gene) | relative expression level of AANAT gene as compared to the control group (AANAT gene) | relative expression level of TPH1 gene as compared to the control group (TPH1 gene) | relative expression level of DDC gene as compared to the control group (DDC gene)
